SMILES strings stand for the structures.

The target in this experiment is T1, human full-length MKNK1 (Homo sapiens, UniProt Q9BUB5, T385D).
T1 construct: GST (N); purchased Carna Biosciences 02-145; host or cells: insect cells (baculovirus expression system)
T1 sequence (Q9BUB5 1-424 isoform Q9BUB5-2 T344D): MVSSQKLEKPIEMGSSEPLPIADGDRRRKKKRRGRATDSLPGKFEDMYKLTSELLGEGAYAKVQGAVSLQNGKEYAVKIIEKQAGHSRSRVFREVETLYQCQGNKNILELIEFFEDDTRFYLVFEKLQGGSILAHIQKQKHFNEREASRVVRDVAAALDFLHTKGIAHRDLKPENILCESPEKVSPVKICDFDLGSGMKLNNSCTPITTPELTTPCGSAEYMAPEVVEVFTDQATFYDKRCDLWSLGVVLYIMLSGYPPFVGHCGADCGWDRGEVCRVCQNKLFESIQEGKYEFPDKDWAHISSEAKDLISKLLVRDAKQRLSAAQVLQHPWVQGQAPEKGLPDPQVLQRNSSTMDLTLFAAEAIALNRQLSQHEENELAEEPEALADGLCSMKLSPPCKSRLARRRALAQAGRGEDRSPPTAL
The experiment in a line: MKNK1 kinase high ATP assay (TR-FRET). In kind it is biochemical. The note with it: 2 mM ATP, after preincubation with MKNK1; read-out: MKNK1 IC50 (MKNK1 high ATP). The gist of the method:
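Compound was preincubated 15 min at 22° C. with MKNK1 in 50 mM HEPES pH 7.5, 5 mM MgCl2, 1.0 mM DTT, then the reaction ran 30 min at 22° C. with 2 mM ATP and 0.06 μM biotinylated peptide (final).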
As for `CCOc1cc2[nH]ncc2cc1Nc1ncnc2sc3c(c12)CCC(C(=O)N1CCC2(CC2)C1)C3` (racemic) [Example 274, (RS)-5-Azaspiro[2.4]hept-5-yl{4-[(6-ethoxy-1H-indazol-5-yl)amino]-5,6,7,8-tetrahydro[1]benzothieno[2,3-d]pyrimidin-7-yl}methanone], the IC50 amounted to 1 nM. As to `COc1cc2[nH]ncc2cc1Nc1ncnc2sc3c(c12)CCC(C(=O)N1CC(OC(=O)N(C)C)C1)C3` (racemic) [Example 275, (RS)-1-({4-[(6-Methoxy-1H-indazol-5-yl)amino]-5,6,7,8-tetrahydro[1]benzothieno[2,3-d]pyrimidin-7-yl}carbonyl)azetidin-3-yl dimethylcarbamate], the concentration for half-maximal inhibition (IC50) came out at 19.8 nM.

As for `CN(C)C(=O)C1CCc2c(sc3ncnc(Nc4cc5cn[nH]c5cc4OCCCN=[N+]=[N-])c23)C1` (racemic) [Example 276, (RS)-4-{[6-(3-Azidopropoxy)-1H-indazol-5-yl]amino}-N,N-dimethyl-5,6,7,8-tetrahydro[1]benzothieno[2,3-d]pyrimidine-7-carboxamide], the half-maximal inhibitory concentration (IC50) is 3.9 nM. Take `NC(=O)C1CCc2c(sc3ncnc(Nc4ccc5[nH]ncc5c4)c23)C1` (stereo not shown) [Example 3, 4-(1H-Indazol-5-ylamino)-5,6,7,8-tetrahydro[1]benzothieno[2,3-d]pyrimidine-7-carboxamide]: the IC50 turned out to be 8 nM.

For the compound `O=C(Nc1ccccc1)C1CCc2c(sc3ncnc(Nc4ccc5[nH]ncc5c4)c23)C1` (stereo not shown) [Example 5, 4-(1H-Indazol-5-ylamino)-N-phenyl-5,6,7,8-tetrahydro[1]benzothieno[2,3-d]pyrimidine-7-carboxamide], the IC50 turned out to be 9 nM. In the case of `CC(C)NC(=O)C1CCc2c(sc3ncnc(Nc4ccc5[nH]ncc5c4)c23)C1` (stereo not shown) [Example 6, 4-(1H-Indazol-5-ylamino)-N-isopropyl-5,6,7,8-tetrahydro[1]benzothieno[2,3-d]pyrimidine-7-carboxamide], the IC50 worked out at 4 nM. As for `O=C(NCC1CC1)C1CCc2c(sc3ncnc(Nc4ccc5[nH]ncc5c4)c23)C1` (stereo not shown) [Example 7, N-(Cyclopropylmethyl)-4-(1H-indazol-5-ylamino)-5,6,7,8-tetrahydro[1]benzothieno[2,3-d]pyrimidine-7-carboxamide], the figure is 6 nM; as for `CN1CCN(C(=O)C2CCc3c(sc4ncnc(Nc5ccc6[nH]ncc6c5)c34)C2)CC1` (stereo not shown) [Example 8, [4-(1H-Indazol-5-ylamino)-5,6,7,8-tetrahydro[1]benzothieno[2,3-d]pyrimidin-7-yl](4-methylpiperazin-1-yl)methanone], 11 nM; as for `CNC(=O)C1CCc2c(sc3ncnc(Nc4ccc5[nH]ncc5c4)c23)C1` (stereo not shown) [Example 11, 4-(1H-indazol-5-ylamino)-N-methyl-5,6,7,8-tetrahydro[1]benzothieno[2,3-d]pyrimidine-7-carboxamide], 10 nM. Next, `COc1cccc(NC(=O)C2CCc3c(sc4ncnc(Nc5ccc6[nH]ncc6c5)c34)C2)c1` (stereo not shown) [Example 13, 4-(1H-indazol-5-ylamino)-N-(3-methoxyphenyl)-5,6,7,8-tetrahydro[1]benzothieno[2,3-d]pyrimidine-7-carboxamide]: 7 nM; `COc1ccc(NC(=O)C2CCc3c(sc4ncnc(Nc5ccc6[nH]ncc6c5)c34)C2)cc1` (stereo not shown) [Example 14, 4-(1H-indazol-5-ylamino)-N-(4-methoxyphenyl)-5,6,7,8-tetrahydro[1]benzothieno[2,3-d]pyrimidine-7-carboxamide]: 7 nM; `Cc1ccccc1NC(=O)C1CCc2c(sc3ncnc(Nc4ccc5[nH]ncc5c4)c23)C1` (stereo not shown) [Example 15, 4-(1H-indazol-5-ylamino)-N-(2-methylphenyl)-5,6,7,8-tetrahydro[1]benzothieno[2,3-d]pyrimidine-7-carboxamide]: 3 nM. With `Cc1ccc(NC(=O)C2CCc3c(sc4ncnc(Nc5ccc6[nH]ncc6c5)c34)C2)cc1` (stereo not shown) [Example 17, 4-(1H-indazol-5-ylamino)-N-(4-methylphenyl)-5,6,7,8-tetrahydro[1]benzothieno[2,3-d]pyrimidine-7-carboxamide], the IC50 came out at 5 nM.

Take `COc1cccc(CNC(=O)C2CCc3c(sc4ncnc(Nc5ccc6[nH]ncc6c5)c34)C2)c1` (stereo not shown) [Example 19, 4-(1H-indazol-5-ylamino)-N-(3-methoxybenzyl)-5,6,7,8-tetrahydro[1] benzothieno [2,3-d]pyrimidine-7-carboxamide]: the half-maximal inhibitory concentration (IC50) was 2 nM.

`COc1ccccc1CNC(=O)C1CCc2c(sc3ncnc(Nc4ccc5[nH]ncc5c4)c23)C1` (stereo not shown) [Example 22, 4-(1H-Indazol-5-ylamino)-N-(2-methoxybenzyl)-5,6,7,8-tetrahydro[1] benzothieno[2,3-d] pyrimidine-7-carboxamide]: the IC50 was 3 nM. `O=C(NCc1ccc2c(c1)OCO2)C1CCc2c(sc3ncnc(Nc4ccc5[nH]ncc5c4)c23)C1` (stereo not shown) [Example 23, N-(1,3-Benzodioxol-5-ylmethyl)-4-(1H-indazol-5-ylamino)-5,6,7,8-tetrahydro[1] benzothieno [2,3-d]pyrimidine-7-carboxamide]: the half-maximal inhibitory concentration (IC50) was 3 nM.

For `O=C(NCc1ccc(F)cc1)C1CCc2c(sc3ncnc(Nc4ccc5[nH]ncc5c4)c23)C1` (stereo not shown) [Example 24, N-(4-Fluorobenzyl)-4-(1H-indazol-5-ylamino)-5,6,7,8-tetrahydro[1] benzothieno [2,3-d]pyrimidine-7-carboxamide], the IC50 was 3 nM. As for `COc1ccc(CCNC(=O)C2CCc3c(sc4ncnc(Nc5ccc6[nH]ncc6c5)c34)C2)cc1` (stereo not shown) [Example 25, 4-(1H-Indazol-5-ylamino)-N-[2-(4-methoxyphenyl)ethyl]-5,6,7,8-tetrahydro[1] benzothieno [2,3-d]pyrimidine-7-carboxamide], the figure is 3 nM; as for `CN(Cc1ccncc1)C(=O)C1CCc2c(sc3ncnc(Nc4ccc5[nH]ncc5c4)c23)C1` (stereo not shown) [Example 26, 4-(1H-Indazol-5-ylamino)-N-methyl-N-(pyridin-4-ylmethyl)-5,6,7,8-tetrahydro[1] benzothieno [2,3-d]pyrimidine-7-carboxamide], 3 nM; as for `Cc1ccc(CNC(=O)C2CCc3c(sc4ncnc(Nc5ccc6[nH]ncc6c5)c34)C2)cc1` (stereo not shown) [Example 27, 4-(1H-Indazol-5-ylamino)-N-(4-methylbenzyl)-5,6,7,8-tetrahydro[1] benzothieno [2,3-d]pyrimidine-7-carboxamide], 3 nM.

For `O=C(NCc1ccc(C(F)(F)F)cc1)C1CCc2c(sc3ncnc(Nc4ccc5[nH]ncc5c4)c23)C1` (stereo not shown) [Example 28, 4-(1H-Indazol-5-ylamino)-N-[4-(trifluoromethyl)benzyl]-5,6,7,8-tetrahydro[1] benzothieno [2,3-d]pyrimidine-7-carboxamide], the IC50 turned out to be 4 nM. As for `O=C(NCc1ccncc1)C1CCc2c(sc3ncnc(Nc4ccc5[nH]ncc5c4)c23)C1` (stereo not shown) [Example 29, 4-(1H-Indazol-5-ylamino)-N-(pyridin-4-ylmethyl)-5,6,7,8-tetrahydro[1] benzothieno [2,3-d]pyrimidine-7-carboxamide], the figure is 4 nM. As for `COc1ccc(CNC(=O)C2CCc3c(sc4ncnc(Nc5ccc6[nH]ncc6c5)c34)C2)cc1` (stereo not shown) [Example 30, 4-(1H-Indazol-5-ylamino)-N-(4-methoxybenzyl)-5,6,7,8-tetrahydro[1] benzothieno [2,3-d]pyrimidine-7-carboxamide], the figure is 4 nM; as for `O=C(NCCOc1ccccc1)C1CCc2c(sc3ncnc(Nc4ccc5[nH]ncc5c4)c23)C1` (stereo not shown) [Example 31, 4-(1H-Indazol-5-ylamino)-N-(2-phenoxyethyl)-5,6,7,8-tetrahydro[1] benzothieno [2,3-d]pyrimidine-7-carboxamide], 4 nM; as for `O=C(NCc1cccnc1)C1CCc2c(sc3ncnc(Nc4ccc5[nH]ncc5c4)c23)C1` (stereo not shown) [Example 32, 4-(1H-Indazol-5-ylamino)-N-(pyridin-3-ylmethyl)-5,6,7,8-tetrahydro[1] benzothieno [2,3-d]pyrimidine-7-carboxamide], 5 nM. Next, `O=C(NCC(F)(F)F)C1CCc2c(sc3ncnc(Nc4ccc5[nH]ncc5c4)c23)C1` (stereo not shown) [Example 33, 4-(1H-Indazol-5-ylamino)-N-(2,2,2-trifluoroethyl)-5,6,7,8-tetrahydro[1] benzothieno [2,3-d]pyrimidine-7-carboxamide]: 5 nM.

As for `CN(C)c1ccc(CNC(=O)C2CCc3c(sc4ncnc(Nc5ccc6[nH]ncc6c5)c34)C2)cc1` (stereo not shown) [Example 34, N-[4-(Dimethylamino)benzyl]-4-(1H-indazol-5-ylamino)-5,6,7,8-tetrahydro[1] benzothieno [2,3-d]pyrimidine-7-carboxamide], the IC50 was 5 nM. Consider `C#CCN(C)C(=O)C1CCc2c(sc3ncnc(Nc4ccc5[nH]ncc5c4)c23)C1` (stereo not shown) [Example 35, 4-(1H-Indazol-5-ylamino)-N-methyl-N-(prop-2-yn-1-yl)-5,6,7,8-tetrahydro[1] benzothieno [2,3-d]pyrimidine-7-carboxamide], for which the IC50 came out at 5 nM. Regarding `O=C(NCCc1ccncc1)C1CCc2c(sc3ncnc(Nc4ccc5[nH]ncc5c4)c23)C1` (stereo not shown) [Example 36, 4-(1H-Indazol-5-ylamino)-N-[2-(pyridin-4-yl)ethyl]-5,6,7,8-tetrahydro[1] benzothieno [2,3-d]pyrimidine-7-carboxamide], the IC50 turned out to be 6 nM.

On to `O=C(NCCc1ccccc1)C1CCc2c(sc3ncnc(Nc4ccc5[nH]ncc5c4)c23)C1` (stereo not shown) [Example 37, 4-(1H-Indazol-5-ylamino)-N-(2-phenylethyl)-5,6,7,8-tetrahydro[1] benzothieno [2,3-d]pyrimidine-7-carboxamide], for which the IC50 was found to be 6 nM. Take `CN(C)CCNC(=O)C1CCc2c(sc3ncnc(Nc4ccc5[nH]ncc5c4)c23)C1` (stereo not shown) [Example 38, N-[2-(Dimethylamino)ethyl]-4-(1H-indazol-5-ylamino)-5,6,7,8-tetrahydro[1] benzothieno [2,3-d]pyrimidine-7-carboxamide]: the IC50 came out at 6 nM.

In general, IC50 refers to the point on the concentration scale where inhibition reaches its midpoint.

For the origin of these results see patent US9540392B2, “Thienopyrimidines” (BAYER PHARMA AKTIENGESELLSCHAFT, priority 2012, dated 2017).
